Experimental data: patent US20140005163A1 (NOVARTIS AG, priority 2010, published 2014)

Tests used:
mTOR = molecular target: T1, mTOR (Homo sapiens, UniProt P42345); assay: Biochemical assay for m-TOR by TR-FRET; conditions: 8 μM ATP, 400 nM GFP-4EBP1, 0.5 nM mTOR
T1 construct: purchased Invitrogen Corporation (Carlsbad/CA, USA) PV4753
Outline: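 mTOR (0.5 nM final) phosphorylated GFP-4EBP1 (400 nM final) with ATP (8 μM final) at rt in 50 mM HEPES pH 7.5, 10 mM MnCl2, 50 mM NaCl, 1 mM EGTA, 1 mM DTT. EDTA stop with Tb3+-anti-p4EBP1 [pThr46] antibody (0.5 nM); TR-FRET read 15 min later.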

PI3K beta = molecular target: T2, PI3K beta (Homo sapiens, UniProt P42338); assay: PI3K beta kinase assay (Kinase-Glo luminescence); assay type: biochemical
T2 construct: for the full-length p110-b subunit are generated and fused by overlapping PCR; p85(iSH2) fusion partner (see partner chain) (N); His tag (C); made in house; host or cells: baculovirus; Tn5 (Trichoplusia ni) or TiniPro insect cells
Outline: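 Full-length p110β with a Gly-linked p85 iSH2 and a C-terminal His tag (BV949, 25 nM) was incubated with 10 μg/mL phosphatidylinositol and 1 μM ATP in 10 mM Tris pH 7.5, 3 mM MgCl2, 50 mM NaCl, 0.05% CHAPS, 1 mM DTT for 60 min at room temperature. Residual ATP was read by Kinase-Glo luminescence.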

[1] = test system: PKB Ser473 phosphorylation in Rat1-myr-HA-p110 delta cells; assay: Reverse protein array assay, PKB Ser473 phosphorylation in Rat1-myr-p110 delta cells; assay type: cell-based; conditions: read-out: p-PKB IC50
Outline: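 Cells: Rat1-myr-HA-p110 alpha/beta/delta, seeded ≥20 h. Lysis on ice 10 min; reverse-phase protein array, 4 lysate dilutions; fluorescence read, relative intensity.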

T1 sequence (P42345 1360-2549 limits assumed): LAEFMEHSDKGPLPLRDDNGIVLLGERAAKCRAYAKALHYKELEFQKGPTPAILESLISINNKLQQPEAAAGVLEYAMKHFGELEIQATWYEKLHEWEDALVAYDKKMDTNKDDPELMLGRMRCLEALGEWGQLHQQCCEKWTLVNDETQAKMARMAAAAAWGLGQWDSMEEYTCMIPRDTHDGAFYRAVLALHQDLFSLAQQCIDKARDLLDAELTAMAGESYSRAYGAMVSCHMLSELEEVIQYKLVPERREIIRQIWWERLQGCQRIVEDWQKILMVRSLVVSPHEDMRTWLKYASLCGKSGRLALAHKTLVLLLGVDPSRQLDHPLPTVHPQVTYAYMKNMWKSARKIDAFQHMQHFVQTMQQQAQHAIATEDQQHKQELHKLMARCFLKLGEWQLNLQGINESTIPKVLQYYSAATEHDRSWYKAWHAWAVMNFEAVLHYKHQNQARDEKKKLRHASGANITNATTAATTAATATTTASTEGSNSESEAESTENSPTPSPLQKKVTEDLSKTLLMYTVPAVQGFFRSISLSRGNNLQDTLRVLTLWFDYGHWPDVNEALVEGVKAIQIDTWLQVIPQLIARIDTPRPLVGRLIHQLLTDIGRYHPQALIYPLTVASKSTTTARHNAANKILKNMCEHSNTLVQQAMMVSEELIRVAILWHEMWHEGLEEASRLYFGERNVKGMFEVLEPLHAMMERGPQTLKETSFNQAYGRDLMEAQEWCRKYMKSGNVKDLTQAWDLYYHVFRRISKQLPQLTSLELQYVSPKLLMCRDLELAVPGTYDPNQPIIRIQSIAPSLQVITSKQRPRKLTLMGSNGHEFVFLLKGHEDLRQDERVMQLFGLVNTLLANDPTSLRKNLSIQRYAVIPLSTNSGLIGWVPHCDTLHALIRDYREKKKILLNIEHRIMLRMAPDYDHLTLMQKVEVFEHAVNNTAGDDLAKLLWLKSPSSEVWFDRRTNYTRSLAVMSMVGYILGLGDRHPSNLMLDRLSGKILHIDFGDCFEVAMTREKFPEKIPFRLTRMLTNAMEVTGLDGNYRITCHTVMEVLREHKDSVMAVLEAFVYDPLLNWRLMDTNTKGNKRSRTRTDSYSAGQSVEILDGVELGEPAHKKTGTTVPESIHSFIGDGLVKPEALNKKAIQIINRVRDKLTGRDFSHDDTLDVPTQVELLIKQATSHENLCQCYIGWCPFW
T2 sequence (P42338 with tags, fused parts or gaps limits assumed): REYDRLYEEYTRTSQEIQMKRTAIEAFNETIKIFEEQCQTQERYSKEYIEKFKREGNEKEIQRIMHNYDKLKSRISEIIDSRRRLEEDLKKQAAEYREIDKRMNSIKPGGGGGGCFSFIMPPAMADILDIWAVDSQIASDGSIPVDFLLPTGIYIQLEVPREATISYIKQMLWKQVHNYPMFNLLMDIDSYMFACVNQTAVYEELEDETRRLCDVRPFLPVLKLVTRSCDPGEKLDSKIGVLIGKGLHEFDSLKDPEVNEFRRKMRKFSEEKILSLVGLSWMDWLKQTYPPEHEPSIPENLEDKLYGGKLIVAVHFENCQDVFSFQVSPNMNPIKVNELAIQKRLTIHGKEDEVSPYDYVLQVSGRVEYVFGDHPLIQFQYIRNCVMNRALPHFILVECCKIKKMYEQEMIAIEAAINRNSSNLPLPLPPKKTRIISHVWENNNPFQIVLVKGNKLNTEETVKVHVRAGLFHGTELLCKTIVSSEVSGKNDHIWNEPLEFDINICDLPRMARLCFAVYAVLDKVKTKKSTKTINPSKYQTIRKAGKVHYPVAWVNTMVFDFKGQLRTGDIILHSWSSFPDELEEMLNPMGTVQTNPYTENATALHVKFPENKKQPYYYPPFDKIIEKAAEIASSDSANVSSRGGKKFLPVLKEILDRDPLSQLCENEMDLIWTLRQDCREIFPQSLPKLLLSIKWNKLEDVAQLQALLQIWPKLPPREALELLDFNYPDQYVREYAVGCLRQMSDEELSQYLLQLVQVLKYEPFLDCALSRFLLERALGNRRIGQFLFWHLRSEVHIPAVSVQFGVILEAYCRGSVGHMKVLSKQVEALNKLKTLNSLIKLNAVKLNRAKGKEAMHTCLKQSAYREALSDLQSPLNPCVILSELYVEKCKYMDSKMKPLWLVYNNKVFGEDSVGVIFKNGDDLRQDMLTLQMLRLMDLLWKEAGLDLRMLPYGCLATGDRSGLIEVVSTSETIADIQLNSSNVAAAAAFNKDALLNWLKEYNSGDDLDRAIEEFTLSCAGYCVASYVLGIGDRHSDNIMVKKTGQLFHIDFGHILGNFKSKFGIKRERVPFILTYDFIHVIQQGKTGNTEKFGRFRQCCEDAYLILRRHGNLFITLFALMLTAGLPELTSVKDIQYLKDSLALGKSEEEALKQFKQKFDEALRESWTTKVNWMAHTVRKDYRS

Row | IC50 (mTOR) [nM] | IC50 (PI3K beta) [nM] | IC50 [1] [nM] | Structure (SMILES)
1 | 34 | 38 | 45 | CCNc1ncc(-c2ccc3ncc4c(c3c2)n(-c2cn(C)nc2C)c(=O)n4C)cc1COC [Example 206.1, 1-(1,3-Dimethyl-1H-pyrazol-4-yl)-8-(6-ethylamino-5-methoxymethyl-pyridin-3-yl)-3-methyl-1,3-dihydro-imidazo[4,5-c]quinolin-2-one]
2 | 7 | 76 | 83 | CCc1ncc(-c2ccc3ncc4c(c3c2)n(-c2cn(C)nc2C)c(=O)n4C)cc1N [Example 208, 8-(5-Amino-6-ethyl-pyridin-3-yl)-1-(1,3-dimethyl-1H-pyrazol-4-yl)-3-methyl-1,3-dihydro-imidazo[4,5-c]quinolin-2-one]
3 | 5 | 7 | 13 | Cn1cc(-n2c(=O)n(C)c3cnc4ccc(-c5cncc(C(C)(C)C#N)c5)cc4c32)c(Cl)n1 [Example 220.3, 2-{5-[1-(3-Chloro-1-methyl-1H-pyrazol-4-yl)-3-methyl-2-oxo-2,3-dihydro-1H-imidazo[4,5-c]quinolin-8-yl]-pyridin-3-yl}-2-methyl-propionitrile]
4 | 32 | 23 | 41 | Cc1nn(C)cc1-n1c(=O)n(C)c2cnc3ccc(-c4cncc(C5(C#N)CCC5)c4)cc3c21 [Example 221.1, 1-{5-[1-(1,3-Dimethyl-1H-pyrazol-4-yl)-3-methyl-2-oxo-2,3-dihydro-1H-imidazo[4,5-c]quinolin-8-yl]-pyridin-3-yl}-cyclobutanecarbonitrile]
5 | 70 | 7 | 49 | CCN1C(=O)OCc2ncc(-c3ccc4ncc5c(c4c3)n(-c3cn(C)nc3C)c(=O)n5C)cc21 [Example 237, 1-(1,3-Dimethyl-1H-pyrazol-4-yl)-8-(1-ethyl-2-oxo-1,4-dihydro-2H-pyrido[3,2-d][1,3]oxazin-7-yl)-3-methyl-1,3-dihydro-imidazo[4,5-c]quinolin-2-one]
6 | 76 | 162 | 719 | CCn1c(=O)n(-c2cn(C)nc2C)c2c3cc(-c4cncc(N)c4)ccc3ncc21 [Example 245, 8-(5-Amino-pyridin-3-yl)-1-(1,3-dimethyl-1H-pyrazol-4-yl)-3-ethyl-1,3-dihydro-imidazo[4,5-c]quinolin-2-one]
